Columns and labels:
Erysiphe graminis [1] = assay: Powdery mildew of barley, systemic root uptake (BMS); format: in vivo; conditions: 45 ml of 250 mg/l, 8 days after inoculation
Outline: (§1)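 Pot soil of barley (BMS) and cucumber (CMS) plants was drenched with 45 ml of a 250 mg/l acetone/Tween 20 aqueous emulsion, with untreated plants as controls. Disease was scored on a rating scale that included intermediate grades.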

Erysiphe cichoracearum = assay: Powdery mildew of cucumber, systemic root uptake (CMS); format: in vivo; conditions: 45 ml of 250 mg/l, 8 days after inoculation
Outline: as §1

Erysiphe graminis [2] = assay: Powdery mildew in barley, foliar application (ERY GRA); format: in vivo; conditions: foliar, 1,000 mg/l, 8 days after inoculation; for pest or weed control at 1000 µg/mL: Blumeria graminis, foliar, 192 h, read-out: Percent Reduction of Disease, ERY GRA
Outline: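 'Robust' barley plants sprayed with acetone/TWEEN 20 aqueous emulsion at 1,000 mg/l, dried, then kept at 21° C in a greenhouse. Inoculated by distributing Erysiphe graminis spores from infected plants. Percent control computed from disease scores vs unsprayed control pots.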

Pyricularia oryzae = assay: whole plant or invertebrate; format: in vivo; conditions: for pest or weed control at 1000 µg/mL: Pyricularia oryzae, in Hordeum vulgare, foliar, 216 h, read-out: Percent Reduction of Disease, PYR ORY, barley, foliar, 1,000 mg/l; for Percent Reduction of Disease, PYR ORY: barley, foliar, 1,000 mg/l
Helminthosporium sativum = assay: Barley spot blotch, foliar treatment (HEL SAT); format: in vivo; conditions: foliar, 1,000 mg/l; for pest or weed control at 1000 µg/mL: Helminthosporium, foliar, 216 h, read-out: Percent Reduction of Disease, HEL SAT
Outline: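 Percent control of H. sativum blotch was computed after foliar spraying of six-day-old "Robust" barley (10 plants/pot) at 1,000 mg/l versus unsprayed pots. Spore inoculation followed spraying, then 24 h in a 99% humidity chamber and eight days in a 21° C greenhouse.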

Septoria nodorum = assay: Fungal growth inhibition, treated disc on agar (SEP NOD); format: cell-based; conditions: disc dipped in 500 mg/l, 29° C.; for inhibition at 500 µg/mL: Parastagonospora nodorum, read-out: Percent Growth Inhibition, SEP NOD
Protocol: The treated and untreated discs were then placed on agar plates and one of the following fungus species: Septoria nodorum (SEP NOD), Botrytis cinerea (BOT CIN), Fusarium oxysporum (FUS OXY), Pythium ultimum (PYT ULT), Rhizoctonia solani (RHI SOL), Colletotrichum gossypii (COL GOS), and Scierotinia minor (SCL MIN), was added to the center of each disc in the form of a culture plug with the fungus mat in contact with the paper of the test disc. Cercosporidium personatum (CER PER), was added to discs as a spore suspension (20,000 spores/ml) to the disc (two drops of spore suspension per disc), rather than a mycelial culture plug. The plates were then incubated at 29° C. in an oven.
With the exception of the discs containing Cercosporidium personatum, the discs were evaluated by first measuring the radius from the center of the fungus colony on the treated discs and on the untreated discs. Percent growth inhibition of each of the compounds tested was determined as a function of the difference between the radius of the fungus colony on the treated disc versus the radius of the fungus colony on the untreated disc.

[3] = tested on: Cercosporidium personatum; assay: Fungal germination and growth, treated disc on agar, scored (CER PER); format: cell-based; parameters: key: 100: Complete inhibition of germination and growth.; 80: Nearly complete inhibition but some growth.; 50: Partial inhibition of growth or, early complete inhibition but later growth begins.; 20: Some inhibition of growth, but not significant.; 0: No inhibition of growth; conditions: disc dipped in 500 mg/l, 29° C., numerical score 0-100, spore suspension
Source text: Filter paper discs, each 11 mm. in diameter, were dipped in each of the test solutions. The discs were allowed to air dry to drive off the acetone solvent. A number of untreated discs were used as controls. The treated and untreated discs were then placed on agar plates and one of the following fungus species: Septoria nodorum (SEP NOD), Botrytis cinerea (BOT CIN), Fusarium oxysporum (FUS OXY), Pythium ultimum ([…]), Rhizoctonia solani (RHI SOL), Colletotrichum gossypii (COL GOS), and Scierotinia minor (SCL MIN), was added to the center of each disc in the form of a culture plug with the fungus mat in contact with the paper of the test disc. Cercosporidium personatum (CER PER), was added to discs as a spore suspension (20,000 spores/ml) to the disc (two drops of spore suspension per disc), rather than a mycelial culture plug. The plates were then incubated at 29° C. in an oven. In the case of the Cercosporidium personatum (CER PER) fungi, scoring was done on a numerical basis as follows: 100=Complete inhibition of germination and growth. 80=Nearly complete inhibition but some growth. 50=Partial inhibition of growth or, early complete inhibition but later growth begins. 20=Some inhibition of growth, but not significant. 0=No inhibition of growth. The results of all the above tests appear in Table III below under the headings "SEP NOD," "BOT CIN," "FUS OXY," "[…]" "COL GOS" and "CER PER".

Rhizoctonia solani = assay: Fungal growth inhibition, treated disc on agar (RHI SOL); format: cell-based; conditions: disc dipped in 500 mg/l, 29° C.; for inhibition at 500 µg/mL: Rhizoctonia solani, read-out: Percent Growth Inhibition, RHI SOL
Fusarium oxysporum = assay: Fungal growth inhibition, treated disc on agar (FUS OXY); format: cell-based; conditions: disc dipped in 500 mg/l, 29° C.; for inhibition at 500 µg/mL: Fusarium oxysporum, read-out: Percent Growth Inhibition, FUS OXY

SMILES	Percent Reduction of Disease, BMS (Erysiphe graminis [1])	Percent Reduction of Disease, CMS (Erysiphe cichoracearum)	pest or weed control at 1000 µg/mL (Erysiphe graminis [2])	pest or weed control at 1000 µg/mL (Pyricularia oryzae)	pest or weed control at 1000 µg/mL (Helminthosporium sativum)	inhibition at 500 µg/mL (Septoria nodorum)	CER PER inhibition score [3]	inhibition at 500 µg/mL (Rhizoctonia solani)	inhibition at 500 µg/mL (Fusarium oxysporum)	Percent Reduction of Disease, ERY GRA (Erysiphe graminis [2])	Percent Reduction of Disease, PYR ORY (Pyricularia oryzae)	Percent Reduction of Disease, HEL SAT (Helminthosporium sativum)	Percent Growth Inhibition, SEP NOD (Septoria nodorum)	Percent Growth Inhibition, RHI SOL (Rhizoctonia solani)	Percent Growth Inhibition, FUS OXY (Fusarium oxysporum)
CCCC(C#N)(Cc1ccc(C(C)(C)C)cc1)c1cccnc1 (stereo not drawn) [Compound 14]	0%	84%	100%	100%	60%	0%	0	5%	25%						
CCCC(C#N)(CCCc1ccccc1Cl)c1cccnc1 (stereo not drawn) [Compound 15, 2-chloro-α-propyl-(3-pyridinyl)benzene pentanenitrile]	0%	96%	100%	85%	100%	93%	100	98%	95%						
CCCCCCC(C#N)(Cc1ccc(C(C)(C)C)cc1)c1cccnc1 (stereo not drawn) [Compound 16]	0%	0%	85%	20%	85%	45%	0	25%	5%						
CCCC(C#N)(Cc1ccc(Oc2ccccc2)cc1)c1cccnc1 (stereo not drawn) [Compound 17]	0%	100%	70%	70%	0%	55%	0	45%	60%						
C=CCC(C#N)(Cc1ccc(C(C)(C)C)cc1)c1cccnc1 (stereo not drawn) [Compound 18]	20%	20%	100%	85%	100%	5%	0	40%	50%						
CCCCC(C#N)(Cc1ccc(C(C)(C)C)cc1)c1cccnc1 (stereo not drawn) [Compound 19]	35%	0%	100%	35%	100%	96%	100	91%	100%						
CCCC(C#N)(CCc1ccccc1)c1ccncc1 (stereo not drawn) [Compound 25]	0%	17%	67%	0%	0%	19%	0	4%	63%						
CCCCC(C#N)(CCc1ccccc1)c1ccncc1 (stereo not drawn) [Compound 26]	0%	0%	50%	0%	0%	45%	0	4%	59%						
C=CCC(C#N)(CCc1ccc(OC)cc1)c1ccccn1 (stereo not drawn) [Compound 28]	0%	0%					100			90%	85%	100%	96%	60%	100%
COc1ccc(CCC(C#N)(CC(C)C)c2ccccn2)cc1 (stereo not drawn) [Compound 29]	0%	0%					100			100%	85%	100%	83%	70%	97%
CCCCCC(C#N)(CCc1ccc(OC)cc1)c1ccccn1 (stereo not drawn) [Compound 30]	0%	0%					0			100%	100%	90%	96%	10%	100%
CCCCC(C#N)(CCc1ccc(OC)cc1)c1ccccn1 (stereo not drawn) [Compound 31]	0%	0%					0			20%	0%	90%	81%	5%	83%
N#CC(CCCc1ccc(Cl)cc1)(CC1CC1)c1ccccn1 (stereo not drawn) [Compound 32]	0%	0%					0			100%	100%	90%	89%	0%	100%
C=CCC(C#N)(CCc1ccc(C)cc1)c1cccnc1 (stereo not drawn) [Compound 33]	40%	20%	100%	85%	100%	96%	0	0%	100%						

Source: patent US5945436A, “Pyridylmethyl nitriles, amides and thioamides useful as fungicides” (Uniroyal Chemical Company, Inc., priority 1997, dated 1999)
